Data published in PMC5451423, “Pharmacokinetic Evaluation of Empagliflozin in Healthy Egyptian Volunteers Using LC-MS/MS and Comparison with Other Ethnic Populations” (Scientific Reports, 2017).
Where two headings read alike, the source gives them in different places.

Legend:
[1] = design: method as in PMID 23859534; conditions: glucuronidation is the major metabolic pathway; cited from earlier work
[2] = Monitoring of blood glucose level of volunteers (hypoglycemic effect); type: in vivo, human; conditions: healthy Egyptian volunteers, 25 mg EG single oral dose, determined at 0 and 1.5 hrs
Text: The pharmacokinetic parameters of EG were studied in healthy human subjects according to the ethical regulations of World Medical Association Declaration of Helsinki (October 1996) and the International Conference of Harmonization Tripartite Guideline for Good Clinical Practice. Written informed consent was provided by each volunteer before enrollment. Approval of the study by the ethical committee was mandatory according to the Egyptian ministry of Health and The British University in Egypt research ethics guidelines. The experimental protocols were approved by the ethics committee of the Faculty of Pharmacy, The British University in Egypt. The clinical trial protocol was registered in a publically accessible primary register that participates in the WHO International Clinical Trial Registry Platform (ClinicalTrials.gov, 16/02/2017, ID: NCT03059056). […] Samples from 6 healthy, adult, male, Egyptian volunteers (age: 22–33 years, average weight: 77.8 kg, average body mass index (BMI): 29.2) were collected at 0, 0.5, 1, 1.5, 2, 3, 4, 8 and 12 hrs, transferred to heparinized centrifuge tubes and analyzed with the proposed method after single oral dose administration of one JARDIANCE tablet nominally containing 25 mg EG. […] Blood glucose level was determined for all volunteers at 0 and 1.5 hrs to monitor any hypoglycemic effect. […]

[3] = design: method as in PMID 25199997; conditions: Japanese subjects, Group 1, n=8, 25 mg empagliflozin; cited from earlier work
[4] = white German subjects, cited from earlier work
[5] = Single oral dose pharmacokinetic study of EG in healthy Egyptian volunteers (LC-MS/MS of plasma); type: in vivo, human; conditions: one JARDIANCE tablet 25 mg EG; for Cmax, Mean ± S.D. (% C.V.): n=6, fasting, single oral dose
Description: Each EG calibrator and quality control (QC) plasma sample (980 µL) was spiked with 20 µL containing the appropriate amount of EG in acetonitrile prepared with dilution of EG working solution. All samples including the volunteers’ plasma samples (1 mL plasma) were spiked with 100 µL of IS that contained 100 ng of DG followed by vortexing for 20 sec. Five milliliters of TBME were added, vortexed for 1 min, and centrifuged for 30 min at 6000 rpm. Four milliliters of the organic layer were vacuum evaporated until dryness at 60 °C. Three hundred microliters of acetonitrile were added to reconstitute the resulting residue and vortexed for 3 min. Ten microliters of the reconstituted solution were injected into the LC-MS/MS system.
The pharmacokinetic parameters of EG were studied in healthy human subjects according to the ethical regulations of World Medical Association Declaration of Helsinki (October 1996) and the International Conference of Harmonization Tripartite Guideline for Good Clinical Practice. Written informed consent was provided by each volunteer before enrollment. Approval of the study by the ethical committee was mandatory according to the Egyptian ministry of Health and The British University in Egypt research ethics guidelines. The experimental protocols were approved by the ethics committee of the Faculty of Pharmacy, The British University in Egypt. The clinical trial protocol was registered in a publically accessible primary register that participates in the WHO International Clinical Trial Registry Platform (ClinicalTrials.gov, 16/02/2017, ID: NCT03059056). Good health of the human subjects was confirmed with a complete medical history and physical examination. Fasting of all volunteers eliminated the possible interaction from high fat meals. The evaluation of safety of the study was based on monitoring of blood glucose level, vital signs, pulse rate, monitoring of adverse events, and physical examination. Samples from 6 healthy, adult, male, Egyptian volunteers (age: 22–33 years, average weight: 77.8 kg, average body mass index (BMI): 29.2) were collected at 0, 0.5, 1, 1.5, 2, 3, 4, 8 and 12 hrs, transferred to heparinized centrifuge tubes and analyzed with the proposed method after single oral dose administration of one JARDIANCE tablet nominally containing 25 mg EG. Blood samples (3 mL of each sample) were centrifuged at 3000 rpm for 5 min, 1 mL of the plasma was separated and spiked with 100 µL (equivalent to 100 ng) of IS working solution, and then the procedure discussed under (Sample preparation) was applied. The main pharmacokinetic parameters of the study, Cmax, Tmax, t1/2, elimination rate constant, AUC0-t and AUC0-inf, were estimated using validated Excel software. Blood glucose level was determined for all volunteers at 0 and 1.5 hrs to monitor any hypoglycemic effect. The study was conducted as per FDA guidelines.

[6] = design: method as in PMID 26101175; conditions: Chinese subjects, Group 2, n=9, 25 mg empagliflozin; cited from earlier work

- blood glucose level of all volunteers [2]: in the normal range
- k el ([5]; male, human, plasma, n=6, single oral dose, read-out: Elimination rate constant, Mean ± S.D. (% C.V.) (converted)): 2.78e-05 s⁻¹
- half-life ([5]; male, human, plasma, n=6, single oral dose, read-out: t 1/2, Mean ± S.D. (% C.V.) (converted)): 6.1 ± 1.2 h
- Cmax, Mean ± S.D. (% C.V.) ([5]; plasma): 576 ± 86 (14.93) nMol/L
- Cmax, Mean ± S.D. (% C.V.) ([5]; plasma, listed as empagliflozin): 576 nmol/L
- AUC0-inf, Mean ± S.D. (% C.V.) ([5]; n=6, single oral dose): 4103 ± 427 (10.41) nMol.h/L
- AUC0−t (12), Mean ± S.D. (% C.V.) ([5]; n=6, single oral dose, 0-12 h): 2806 ± 234 (8.34) nMol.h/L
- AUC0-inf, Mean ± S.D. (% C.V.) ([5]; n=6, single oral dose, listed as empagliflozin): 4103 nmol·h/L
SMILES: OC[C@H]1O[C@@H](c2ccc(Cl)c(Cc3ccc(O[C@H]4CCOC4)cc3)c2)[C@H](O)[C@@H](O)[C@@H]1O [Empagliflozin]
- metabolites detected in human plasma [1]: no major metabolites
- AUC0-inf, Mean [3]: 7.56 µM·h
- Cmax, Mean [3]: 1070 nM
- AUC0-inf, Mean ([4]; Group 1, n=6, 25 mg EG): 3.83 µM·h
- Cmax, Mean ([4]; Group 1, n=6, 25 mg EG): 505 nM
- AUC0-inf, Mean ([4]; Group 2, n=18, 25 mg EG): 4.77 µM·h
- Cmax, Mean ([4]; Group 2, n=18, 25 mg EG): 610 nM
- AUC0-inf, Mean ([4]; Group 3, n=9, 25 mg EG): 4.31 µM·h
- Cmax, Mean ([4]; Group 3, n=9, 25 mg EG): 606 nM
- AUC0-inf, Mean ([4]; Group 4, n=9, 25 mg EG): 4.99 µM·h
- Cmax, Mean ([4]; Group 4, n=9, 25 mg EG): 630 nM
- AUC0-inf, Mean [6]: 7.45 µM·h
- Cmax, Mean [6]: 1130 nM
